Data: ChEMBL document CHEMBL1201862, “PubChem BioAssay data set” (2004)
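Values below derive from 48-hour exposures of cells grown in 96-well plates, with endpoints linearly interpolated between the two concentrations bracketing the appropriate inhibition level. Here, GI50 denotes the concentration required for 50% inhibition of growth.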 Activity calls are given as the source filed them. Rule as the data show it: active = GI50 up to about 1.1 µM and inactive = higher.

Tests used:
Assay in all cases: DTP human tumour cell line panel, 48 h
HT-29 = tested on: HT-29
UACC-257 = tested on: UACC-257
OVCAR-3 = tested on: OVCAR-3
HCC 2998 = tested on: HCC 2998
A549 = tested on: A549
NCI-H23 = tested on: NCI-H23
SNB-75 = tested on: SNB-75
HCT-15 = tested on: HCT-15
SN12C = tested on: SN12C
EKVX = tested on: EKVX
SNB-19 = tested on: SNB-19
Malme-3M = tested on: Malme-3M
NCI-H460 = tested on: NCI-H460
CCRF-CEM = tested on: CCRF-CEM
HOP-62 = tested on: HOP-62
SF-539 = tested on: SF-539
NCI-H522 = tested on: NCI-H522
RPMI-8226 = tested on: RPMI-8226

| SMILES | GI50 (HT-29) | GI50 (UACC-257) | GI50 (OVCAR-3) | GI50 (HCC 2998) | GI50 (A549) | GI50 (NCI-H23) | GI50 (SNB-75) | GI50 (HCT-15) [µM] | GI50 (SN12C) | GI50 (EKVX) | GI50 (SNB-19) | GI50 (Malme-3M) | GI50 (NCI-H460) | GI50 (CCRF-CEM) | GI50 (HOP-62) | GI50 (SF-539) | GI50 (NCI-H522) | GI50 (RPMI-8226) |
| --- | --- | --- | --- | --- | --- | --- | --- | --- | --- | --- | --- | --- | --- | --- | --- | --- | --- | --- |
| COc1cc(Nc2cnc3cc(N)ccc3n2)cc(OC)c1OC | 62.5 µM (inactive) | > 100 µM (inactive) | 53.8 µM (inactive) | 50.1 µM (inactive) | > 100 µM (inactive) | > 100 µM (inactive) | > 100 µM (inactive) | 55.2 | 94.6 µM (inactive) | 58.6 µM (inactive) | > 100 µM (inactive) | > 100 µM (inactive) | 34.1 µM (inactive) | 40.3 µM (inactive) | 97.7 µM (inactive) | > 100 µM (inactive) | 57.5 µM (inactive) |  |
| COc1ccc2c3c1O[C@]1(C)C34CCN(C)C(C2)C42C=C[C@@]1(OC)c1c(O)ccc(O)c12 | > 100 µM (inactive) | > 100 µM (inactive) | > 100 µM (inactive) | > 100 µM (inactive) | > 100 µM (inactive) | > 100 µM (inactive) | > 100 µM (inactive) |  |  | > 100 µM (inactive) | > 100 µM (inactive) | 64.7 µM (inactive) | > 100 µM (inactive) | > 100 µM (inactive) | > 100 µM (inactive) | > 100 µM (inactive) | > 100 µM (inactive) | > 100 µM (inactive) |
| Cn1c(NC(=O)NC23CC4CC(CC(C4)C2)C3)nc2ccccc21 | > 100 µM (inactive) | 94.2 µM (inactive) | > 100 µM (inactive) | > 100 µM (inactive) | > 100 µM (inactive) | > 100 µM (inactive) | 3.94 µM (inactive) | > 100 | 68.5 µM (inactive) | 83.8 µM (inactive) | 95.1 µM (inactive) | 17.5 µM (inactive) | 38.4 µM (inactive) |  | 30.5 µM (inactive) | 81.1 µM (inactive) | 78.7 µM (inactive) | > 100 µM (inactive) |
| CC1(CO)OC(n2cc(C(=O)NC(=O)OCc3ccccc3)c(=O)[nH]c2=O)CC1O (stereo unspecified) | > 100 µM (inactive) | > 100 µM (inactive) | > 100 µM (inactive) |  | > 100 µM (inactive) | > 100 µM (inactive) | 84.5 µM (inactive) | > 100 | > 100 µM (inactive) |  | > 100 µM (inactive) | > 100 µM (inactive) | > 100 µM (inactive) | > 100 µM (inactive) | > 100 µM (inactive) | > 100 µM (inactive) | > 100 µM (inactive) | > 100 µM (inactive) |
| COc1ccc(NCc2cc(OC)c(OC)c(OC)c2)cc1 | 0.176 µM (active) |  | 0.34 µM (active) | 0.277 µM (active) | 0.578 µM (active) | 0.513 µM (active) |  | 0.217 | 0.53 µM (active) | 4.97 µM (inactive) | 1.19 µM (inactive) |  | 0.359 µM (active) |  | 0.378 µM (active) | 0.34 µM (active) | 0.372 µM (active) | 0.459 µM (active) |
| c1cnn(CN(Cn2cccn2)Cn2cccn2)c1 |  | > 100 µM (inactive) | > 100 µM (inactive) |  | > 100 µM (inactive) | > 100 µM (inactive) | > 100 µM (inactive) | > 100 | > 100 µM (inactive) | > 100 µM (inactive) | > 100 µM (inactive) |  | > 100 µM (inactive) | > 100 µM (inactive) | > 100 µM (inactive) | > 100 µM (inactive) | > 100 µM (inactive) | 35.5 µM (inactive) |
| CCNC(=O)c1ccc(C)c(/N=N/N(C)C)c1 | > 100 µM (inactive) | > 100 µM (inactive) | > 100 µM (inactive) | > 100 µM (inactive) | > 100 µM (inactive) | > 100 µM (inactive) |  | > 100 | > 100 µM (inactive) | > 100 µM (inactive) | > 100 µM (inactive) |  | > 100 µM (inactive) |  | > 100 µM (inactive) | > 100 µM (inactive) | 81.1 µM (inactive) |  |
| Nc1nc(CCl)nc(Nc2ccccc2)n1 | 12.5 µM (inactive) | 15.9 µM (inactive) | 17.2 µM (inactive) | 17.4 µM (inactive) | 26.2 µM (inactive) | 18.6 µM (inactive) | 6.24 µM (inactive) |  |  |  | 46.6 µM (inactive) | 17.4 µM (inactive) | 17.3 µM (inactive) | 2.14 µM (inactive) | 16.3 µM (inactive) | 25 µM (inactive) | 1.75 µM (inactive) | 4.1 µM (inactive) |
| O=C(c1ccccc1)C(C(=O)c1ccccc1)C1(O)C(=O)c2ccccc2C1=O | 39.7 µM (inactive) | 38.4 µM (inactive) | 26.6 µM (inactive) | 39.4 µM (inactive) | 29.3 µM (inactive) | 28.6 µM (inactive) | 24.8 µM (inactive) | 44.2 | 27.8 µM (inactive) | 32.5 µM (inactive) | 37.3 µM (inactive) | 24.2 µM (inactive) |  | 20.4 µM (inactive) | 29.4 µM (inactive) | 32.1 µM (inactive) | 14.1 µM (inactive) | 31.1 µM (inactive) |
